According to publication PMC6802219, “A kinase-independent role for CDK8 in BCR-ABL1^+ leukemia” (Nature Communications, 2019):
Read-outs that look alike come from different tables or passages of the source.

What was measured:
[1] = target: CDK8 (Homo sapiens, UniProt P49336); experiment: CDK8 kinase inhibition IC50 (assay not detailed in main text); type: biochemical
[2] = system: #15; experiment: cells; parameters: species or system primary ALL patient cells; 3H-thymidine incorporation proliferation assay in primary ALL patient cells; details: 48 h
Procedure: (§1) Synthesis details of YKL-06-101 and JH-XI-10-02 are provided in Supplementary Notes 1 and 2. Proliferation of degrader-exposed human leukemic cell lines and primary ALL patient cells were examined by measuring 3H-thymidine uptake after 48 h. For immunoblottings and FACS analysis, cells were incubated with the indicated concentrations of the degraders up to 96 h.  Fig. 7 Chemical CDK8 degradation cooperates with mTOR inhibition. a Co-expression matrix of CDK8 and members of mTOR/PI3K signaling pathways in samples of 203 pediatric ALL patients (TARGET cohort, RNA-seq) and b 179 AML patients (TCGA AML cohort, RNA-seq). […] DMSO was used as vehicle control (D: DMSO, n = 3). Immunoblots show mTOR, CDK8, and pS6 after incubation of f REH cells or g Z119 cells with 0.5 µM and 1 µM of JH-XI-10-02 or YKL-06-101 for 48, 72, and 96 h. DMSO (indicated as D) was used as vehicle control and β-actin served as loading control. h AnnexinV/7AAD staining of Z119 cells incubated with 0.5 µM and 1 µM of JH-XI-10-02 or YKL-06-101 for 72 and 96 h. DMSO was used as a vehicle control (D: DMSO, n = 3). i AnnexinV/7AAD staining of Z119 cells incubated with Torin1, JH-XI-10-02, or both in combination with indicated concentrations for 72 and 96 h. DMSO (indicated as D) was used as a vehicle control. One representative experiment out of three is depicted. j Bar diagram depicts relative thymidine incorporation of six primary B-ALL patient samples incubated for 48 h with 1 μM of YKL-06-101. Patient #1 represents a non-responder, patient #4 was BCR-ABL1^+ (Ph^+), whereas the others were BCR-ABL1^− (Ph^−). Levels of significance were calculated using Kruskal–Wallis test followed by Dunn’s test, data represents means ± SD (*p < 0.05, **p < 0.01). Source data are provided as a Source Data file

[3] = system: #8; experiment: cells; parameters: species or system primary ALL patient cells; 3H-thymidine incorporation proliferation assay in primary ALL patient cells; details: 48 h
Procedure: as §1

[4] = system: #9; experiment: cells; parameters: species or system primary ALL patient cells; 3H-thymidine incorporation proliferation assay in primary ALL patient cells; details: 48 h
Procedure: as §1

[5] = system: #3; experiment: cells; parameters: species or system primary ALL patient cells; 3H-thymidine incorporation proliferation assay in primary ALL patient cells; details: 48 h
Procedure: as §1

[6] = system: #13; experiment: cells; parameters: species or system primary ALL patient cells; 3H-thymidine incorporation proliferation assay in primary ALL patient cells; details: 48 h
Procedure: as §1

[7] = system: #14; experiment: cells; parameters: species or system primary ALL patient cells; 3H-thymidine incorporation proliferation assay in primary ALL patient cells; details: 48 h
Procedure: as §1

[8] = system: #7; experiment: cells; parameters: species or system primary ALL patient cells; 3H-thymidine incorporation proliferation assay in primary ALL patient cells; details: 48 h
Procedure: as §1

[9] = system: #6; experiment: cells; parameters: species or system primary ALL patient cells; 3H-thymidine incorporation proliferation assay in primary ALL patient cells; details: 48 h
Procedure: as §1

[10] = system: #1; experiment: cells; parameters: species or system primary ALL patient cells; 3H-thymidine incorporation proliferation assay in primary ALL patient cells; details: 48 h
Procedure: as §1

[11] = system: #12; experiment: cells; parameters: species or system primary ALL patient cells; 3H-thymidine incorporation proliferation assay in primary ALL patient cells; details: 48 h
Procedure: as §1

[12] = system: #11; experiment: cells; parameters: species or system primary ALL patient cells; 3H-thymidine incorporation proliferation assay in primary ALL patient cells; details: 48 h
Procedure: as §1

[13] = system: #4; experiment: cells; parameters: species or system primary ALL patient cells; 3H-thymidine incorporation proliferation assay in primary ALL patient cells; details: 48 h
Procedure: as §1

CDK8, sequence (P49336 whole entry): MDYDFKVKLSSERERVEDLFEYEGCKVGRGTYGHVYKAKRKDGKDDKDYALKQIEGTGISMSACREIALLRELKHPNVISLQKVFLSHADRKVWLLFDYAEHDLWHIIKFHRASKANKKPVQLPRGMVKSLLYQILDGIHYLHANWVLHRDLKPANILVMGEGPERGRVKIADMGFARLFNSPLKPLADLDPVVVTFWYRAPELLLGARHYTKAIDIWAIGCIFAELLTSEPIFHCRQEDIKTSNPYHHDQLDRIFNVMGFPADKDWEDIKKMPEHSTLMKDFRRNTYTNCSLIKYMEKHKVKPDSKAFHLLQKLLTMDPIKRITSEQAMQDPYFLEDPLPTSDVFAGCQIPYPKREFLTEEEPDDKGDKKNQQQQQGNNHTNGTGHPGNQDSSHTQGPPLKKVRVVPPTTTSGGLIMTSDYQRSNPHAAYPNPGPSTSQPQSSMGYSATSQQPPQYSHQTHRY

THZ4-55
IC50 [1]: 0.005 µM

CN(C(=O)CCOCCOCCOCCOCCNc1cccc2c1C(=O)N(C1CCC(=O)NC1=O)C2=O)[C@H]1CC[C@@]2(C)[C@@H](CC[C@@H]3[C@@H]2CC[C@]2(C)[C@@H](c4ccc5ccncc5c4)CC[C@@H]32)C1 (stereo partly shown) [JH-XI-10-02]
IC50 ([2]; read-out: JH-XI-10-02 IC50): > 10 µM | IC50 ([3]; read-out: JH-XI-10-02 IC50): > 10 µM | IC50 ([4]; read-out: JH-XI-10-02 IC50): > 10 µM | IC50 ([5]; read-out: JH-XI-10-02 IC50): > 10 µM | IC50 ([6]; read-out: JH-XI-10-02 IC50): > 10 µM | IC50 ([7]; read-out: JH-XI-10-02 IC50): > 10 µM | IC50 ([8]; read-out: JH-XI-10-02 IC50): > 10 µM | IC50 ([9]; read-out: JH-XI-10-02 IC50): > 10 µM | IC50 ([10]; read-out: JH-XI-10-02 IC50): > 10 µM | IC50 ([11]; read-out: JH-XI-10-02 IC50): > 10 µM | IC50 ([12]; read-out: JH-XI-10-02 IC50): > 10 µM | IC50 ([13]; read-out: JH-XI-10-02 IC50): > 10 µM

O=C1CCC(N2C(=O)c3cccc(NCCOCCOCCOCCOCCOCCC(=O)N4CCN(c5ccc(-n6c(=O)ccc7cnc8ccc(-c9ccc%10ccncc%10c9)cc8c76)cc5C(F)(F)F)CC4)c3C2=O)C(=O)N1 (stereo not shown) [YKL-06-101]
IC50 ([2]; read-out: YKL-06-101 IC50): 10 µM | IC50 ([3]; read-out: YKL-06-101 IC50): > 10 µM | IC50 ([4]; read-out: YKL-06-101 IC50): 9 µM | IC50 ([5]; read-out: YKL-06-101 IC50): 0.9 µM | IC50 ([6]; read-out: YKL-06-101 IC50): 0.3 µM | IC50 ([7]; read-out: YKL-06-101 IC50): > 10 µM | IC50 ([8]; read-out: YKL-06-101 IC50): > 10 µM | IC50 ([9]; read-out: YKL-06-101 IC50): 0.1 µM | IC50 ([10]; read-out: YKL-06-101 IC50): > 10 µM | IC50 ([11]; read-out: YKL-06-101 IC50): > 10 µM | IC50 ([12]; read-out: YKL-06-101 IC50): 0.4 µM | IC50 ([13]; read-out: YKL-06-101 IC50): > 10 µM
